From PMC8329121 (Journal of Neuroimmune Pharmacology, 2021)
Where “and” joins values, the source holds several entries; their conditions need not be identical. Equal entries are not always repeated. Where two headings read alike, the source gives them in different places.

What was measured:
hDAT D381L [1] = target: T1, hDAT D381L (Homo sapiens, UniProt Q01959, D381L); test: [3H]WIN35,428 binding in intact PC12 cells
T1 construct: expressed in transfected cells; host or cells: PC12 cells, transient, pcDNA3.1+
T1 sequence (Q01959 whole entry D381L): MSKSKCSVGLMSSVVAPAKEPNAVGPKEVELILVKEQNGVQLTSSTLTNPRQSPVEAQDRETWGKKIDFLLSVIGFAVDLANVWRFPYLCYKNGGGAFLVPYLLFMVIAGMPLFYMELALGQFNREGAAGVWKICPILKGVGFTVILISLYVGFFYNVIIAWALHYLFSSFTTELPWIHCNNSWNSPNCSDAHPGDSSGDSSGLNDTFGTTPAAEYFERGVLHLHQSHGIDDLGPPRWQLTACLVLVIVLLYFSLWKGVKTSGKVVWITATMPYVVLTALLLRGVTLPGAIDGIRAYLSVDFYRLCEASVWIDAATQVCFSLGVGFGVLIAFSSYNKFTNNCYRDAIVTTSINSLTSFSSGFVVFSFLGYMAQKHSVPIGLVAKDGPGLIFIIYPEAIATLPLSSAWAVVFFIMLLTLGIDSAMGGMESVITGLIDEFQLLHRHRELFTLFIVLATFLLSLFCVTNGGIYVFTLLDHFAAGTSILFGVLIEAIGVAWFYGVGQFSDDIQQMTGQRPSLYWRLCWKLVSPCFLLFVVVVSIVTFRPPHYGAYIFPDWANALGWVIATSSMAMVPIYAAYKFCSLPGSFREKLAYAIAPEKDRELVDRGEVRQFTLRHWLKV
Procedure: (§1) For the competitive inhibition experiment, assays were performed in duplicate in a final volume of 500 µl. […] Assays were terminated by removal of reaction reagents in well and then washed three times with ice-cold assay buffer. Cells were lysed with 1 % SDS for an hour. Radioactivity was determined as described above.

hDAT Y88F/D206L/H547A [2] = target: T2, hDAT Y88F/D206L/H547A (Homo sapiens, UniProt Q01959, D206L/H547A/Y88F); test: [3H]WIN35,428 binding in intact PC12 cells
T2 construct: expressed in transfected cells; host or cells: PC12 cells, transient, pcDNA3.1+
T2 sequence (Q01959 1-620 Y88F/D206L/H547A): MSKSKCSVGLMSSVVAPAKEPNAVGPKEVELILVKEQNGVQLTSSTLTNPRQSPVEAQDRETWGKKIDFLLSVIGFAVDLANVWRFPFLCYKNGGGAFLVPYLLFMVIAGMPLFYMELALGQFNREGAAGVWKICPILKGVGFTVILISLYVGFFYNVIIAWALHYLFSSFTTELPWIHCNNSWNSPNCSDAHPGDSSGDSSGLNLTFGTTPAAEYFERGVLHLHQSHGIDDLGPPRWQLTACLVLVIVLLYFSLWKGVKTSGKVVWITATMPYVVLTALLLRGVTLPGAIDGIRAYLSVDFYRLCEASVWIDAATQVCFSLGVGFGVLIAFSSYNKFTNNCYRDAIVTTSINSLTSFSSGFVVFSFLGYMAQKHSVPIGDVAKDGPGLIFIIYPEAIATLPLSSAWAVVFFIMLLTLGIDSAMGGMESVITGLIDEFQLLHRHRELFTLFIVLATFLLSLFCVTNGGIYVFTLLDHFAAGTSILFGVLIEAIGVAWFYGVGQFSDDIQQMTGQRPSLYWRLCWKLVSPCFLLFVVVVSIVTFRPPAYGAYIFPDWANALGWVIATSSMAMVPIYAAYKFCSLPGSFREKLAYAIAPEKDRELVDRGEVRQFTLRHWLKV
Procedure: as §1

hDAT D206L/H547A [3] = target: T3, hDAT D206L/H547A (Homo sapiens, UniProt Q01959, D206L/H547A); test: [3H]WIN35,428 binding in intact PC12 cells
T3 construct: expressed in transfected cells; host or cells: PC12 cells, transient, pcDNA3.1+
T3 sequence (Q01959 whole entry D206L/H547A): as the sequence (Q01959 whole entry D381L) above, with D206L, L381D, H547A counted along it
Procedure: as §1

hDAT D206L [4] = target: T4, hDAT D206L (Homo sapiens, UniProt Q01959, D206L); test: [3H]WIN35,428 binding in intact PC12 cells
T4 construct: expressed in transfected cells; host or cells: PC12 cells, transient, pcDNA3.1+
T4 sequence (Q01959 whole entry D206L): as the sequence (Q01959 whole entry D381L) above, with D206L, L381D counted along it
Procedure: as §1

WT hDAT [5] = target: T5, WT hDAT (Homo sapiens, UniProt Q01959); assay type: binding; set-up: expressed in transfected cells; host or cells: PC12 cells, transient, pcDNA3.1+; conditions: for Bmax of [3H]WIN35,428 binding: PC12 cells; for increase in specific [3H]WIN35,428 binding: Fig. 6d
T5 sequence (Q01959 whole entry): as the sequence (Q01959 whole entry D381L) above, with L381D counted along it
Procedure: as §1

hDAT D381L [6] = target: T1, hDAT D381L; test: [3H]DA uptake kinetics and inhibition in intact PC12 cells; assay type: cell-based
hDAT D206L [7] = target: T4, hDAT D206L; test: as above; assay type: cell-based
hDAT Y88F/D206L/H547A [8] = target: T2, hDAT Y88F/D206L/H547A; test: as above; assay type: cell-based
WT hDAT [9] = target: T5, WT hDAT; conditions: for Vmax of [3H]DA uptake: PC12 cells
hDAT D206L/H547A [10] = target: T3, hDAT D206L/H547A; test: [3H]DA uptake kinetics and inhibition in intact PC12 cells; assay type: cell-based
WT hDAT [11] = target: T5, WT hDAT; test: Kinetic analysis of [3H]DA uptake with or without 2-BP in PC12 cells; assay type: cell-based; set-up: expressed in transfected cells; host or cells: PC12 cells, transient, pcDNA3.1+; conditions: 15 µM 2-BP
Procedure: (§2) This concentration was chosen based on previous studies as well as pilot experiments conducted to determine the optimal concentration (data not shown). […] Intact PC12 cells in 24-well plates transiently expressing WT hDAT or H547A were washed twice with 1× KRH buffer. […] Nonspecific uptake was determined in the presence of 10 µM nomifensine and desipramine. […] specific uptake, nonspecific uptake was subtracted from total uptake. To determine the effects of 2-BP exposure at the 2 h time point, the cells were incubated similarly as above, but allowed to incubate at room temperature for 2 h. After each incubation, cells were washed twice with ice-cold 1× KRH buffer to terminate the […], lysed with 500 µl 1 % SDS, and allowed to shake at room temperature for an hour. Lysates were collected into scintillation vials and radioactivity was measured via liquid scintillation as above. Radioactivity was measured the next day using a liquid scintillation counter (model Tri-Carb 2900TR; PerkinElmer Life and Analytical Sciences, Waltham, MA).

hDAT H547A = target: T6, hDAT H547A (Homo sapiens, UniProt Q01959, H547A); test: as above; assay type: cell-based; conditions: 15 µM 2-BP
T6 construct: expressed in transfected cells; host or cells: PC12 cells, transient, pcDNA3.1+
T6 sequence (Q01959 whole entry H547A): as the sequence (Q01959 whole entry D381L) above, with L381D, H547A counted along it
Procedure: as §2

[12] = ZnCl2 1, 10, 100 µM, concentration-dependent

For `COC(=O)[C@H]1[C@@H](c2ccc(F)cc2)C[C@@H]2CC[C@H]1N2C` [[^3H]WIN35,428], the “Bmax of [3H]WIN35,428 binding” value (hDAT D381L [1]; PC12 cells) was 2.00 ± 0.63 pmol/10^5 cells, the “Bmax of [3H]WIN35,428 binding” value (hDAT Y88F/D206L/H547A [2]; PC12 cells) was 3.50 ± 0.47 poml/10^5 cells and the “Bmax of [3H]WIN35,428 binding” value (hDAT D206L/H547A [3]; PC12 cells) was 4.95 ± 1.28 poml/10^5 cells. For the same compound, the “Bmax of [3H]WIN35,428 binding” value (hDAT D206L [4]; PC12 cells) was 2.87 ± 0.96 pmol/10^5 cells, the “Bmax of [3H]WIN35,428 binding” value (WT hDAT [5]; Table 3 series) was 3.32 ± 0.58 pmol/10^5 cells and the “Bmax of [3H]WIN35,428 binding” value (WT hDAT [5]; Table 4 series) was 2.44 ± 0.40 poml/10^5 cells.
For `[3H]C(CN)c1ccc(O)c(O)c1` (stereo not drawn) [[^3H]DA, 3,4-ethyl-2[N-^3H]dihydroxyphenylethylamine], the “Vmax of [3H]DA uptake” value (hDAT D381L [6]; PC12 cells) was 4.54 ± 0.95 pmol/min/10^5 cells, the “Vmax of [3H]DA uptake” value (hDAT D206L [7]; PC12 cells) was 13.09 ± 3.55 pmol/min/10^5 cells and the “Vmax of [3H]DA uptake” value (hDAT Y88F/D206L/H547A [8]; PC12 cells) was 10.78 ± 0.98 pmol/min/10^5 cells. The “Vmax of [3H]DA uptake” value (WT hDAT [9]; Table 1 series (single mutants)) was 12.43 ± 2.50 pmol/min/10^5 cells, the “Vmax of [3H]DA uptake” value (WT hDAT [9]; Table 2 series (double and triple mutants)) was 26.62 ± 3.87 pmol/min/10^5 cells and the “Vmax of [3H]DA uptake” value (hDAT D206L/H547A [10]; PC12 cells) was 40.82 ± 3.60 pmol/min/10^5 cells.
In the case of `[Cl-].[Cl-].[Zn+2]` [Zn^2+, ZnCl2], the “zinc effect on [3H]DA uptake” value (hDAT D381L [6]; [12]) is reported as “decrease”, the “zinc effect on [3H]DA uptake” value (hDAT D206L [7]; [12]) is reported as “decrease” and the “zinc effect on [3H]DA uptake” value (hDAT Y88F/D206L/H547A [8]; [12]) is reported as “decrease”. The “zinc effect on specific [3H]WIN35,428 binding” value (shortened to “zinc effect on specific”) (hDAT D381L [1]; [12]) was “increase”, the “zinc-induced increase in [3H]WIN35,428 binding versus WT hDAT” value (hDAT Y88F/D206L/H547A [2]; 10 and 100 µM Zn2+, Fig. 6d) was “attenuated” and the “zinc-induced increase in [3H]WIN35,428 binding versus WT hDAT” value (hDAT D206L/H547A [3]; 10 and 100 µM Zn2+, Fig. 6d) was “attenuated”. The “zinc effect on specific” value (hDAT D206L [4]; [12]) was “increase”, the “zinc effect on [3H]DA uptake” value (hDAT D206L/H547A [10]; [12]) was “decrease” and the “increase in specific [3H]WIN35,428 binding” value (WT hDAT [5]; 10 µM Zn2+) was 39%. The “increase in specific [3H]WIN35,428 binding” value (WT hDAT [5]; 100 µM Zn2+) was 52% and the “zinc effect on specific” value (WT hDAT [5]; [12]) was “increase”.
`CCCCCCCCCCCCCCC(Br)C(=O)O` (stereo not drawn) [2-BP, 2-bromopalmitate] was tested, and the “Vmax of [3H]DA uptake in the presence of 2-BP” value (“Vmax of [3H]DA uptake … of 2-BP” for short) (WT hDAT [11]; 0 h) was 5.36 ± 0.74 pmol/min/10^5 cells, the “Vmax of [3H]DA uptake … of 2-BP” value (WT hDAT [11]; 2 h) was 5.55 ± 0.92 pmol/min/10^5 cells and the “Vmax of [3H]DA uptake … of 2-BP” value (hDAT H547A; 0 h) was 6.41 ± 1.45 pmol/min/10^5 cells. The “Vmax of [3H]DA uptake … of 2-BP” value (hDAT H547A; 2 h) was 5.56 ± 1.93 pmol/min/10^5 cells and 5.66 ± 1.93 pmol/min/10^5 cells.
`NCCc1ccc(O)c(O)c1` [[^3H]DA, 3,4-ethyl-2[N-^3H]dihydroxyphenylethylamine] showed a Km (hDAT D381L [6]; PC12 cells) of 1.04 ± 0.34 µM, a Km (hDAT D206L [7]; PC12 cells) of 1.66 ± 0.78 µM and a Km (WT hDAT [9]; read-out: Km of [3H]DA uptake, PC12 cells, Table 2 series) of 0.45 ± 0.21 µM.
